Source: ChEMBL document CHEMBL1201862, “PubChem BioAssay data set” (2004)
Activity calls are given as the source filed them.

Tests used:
[1] = Luminescence Cell-Based Dose Retest to Confirm Inhibitors of Cancer Stem Cells. [Related pubchem assays (depositor defined):AID2717, AID2721]; type: functional; settings: Homo sapiens
[2] = blockers of HIV-1 envelope-mediated cell-cell fusion – cherry-pick, dose response (AID 652057); type: functional, cell-based
[3] = viability loss in CEM21 cells – cell-based, CellTiter-Glo luminescence, cherry-picked, cytotoxicity control for viral fusion inhibitor project, dose response (AID 652042); type: functional;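 note: potency for signal decrease meaning cytotoxicity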
[4] = blockers of HIV-1 ZM109 envelope-driven cell-cell fusion – HeLa effector, CEM target cells, luciferase, cherry-pick, dose response (AID 652058); type: functional, cell-based;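 note: luciferase signal from HIV-1 Env mediated cell-cell fusion of effector and target cells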
HEK293 = assay: EBV LMP1 TES2 canonical NF-kB signalling blockers – cell-based, HEK293, luciferase, cherry-pick, dose response (AID 588343); type: functional; settings: Homo sapiens
[5] = Counterscreen for activators of the function of SWI/SNF related, matrix associated, actin dependent regulator of chromatin, subfamily a, member 2 (SMARCA2, BRM): Luminescence-based cell-based high throughput dose response assay to identify non-selective compounds using the VP16 reporter assay.; type: functional
[6] = target: SWI/SNF-related matrix-associated actin-dependent regulator of chromatin subfamily A member 2 (Homo sapiens, UniProt P51531); assay: Luminescence-based cell-based high throughput dose response assay to identify activators of the function of SWI/SNF related, matrix associated, actin dependent regulator of chromatin, subfamily a, member 2 (SMARCA2, BRM).; type: functional
[7] = target: T1, Replicative DNA helicase DnaB (Mycobacterium tuberculosis, UniProt P9WMR3); assay: DnaB intein splicing inhibitors, dose response, biochemical, cell-free fluorescence (AID 449749); type: functional
T1 sequence (P9WMR3 whole entry): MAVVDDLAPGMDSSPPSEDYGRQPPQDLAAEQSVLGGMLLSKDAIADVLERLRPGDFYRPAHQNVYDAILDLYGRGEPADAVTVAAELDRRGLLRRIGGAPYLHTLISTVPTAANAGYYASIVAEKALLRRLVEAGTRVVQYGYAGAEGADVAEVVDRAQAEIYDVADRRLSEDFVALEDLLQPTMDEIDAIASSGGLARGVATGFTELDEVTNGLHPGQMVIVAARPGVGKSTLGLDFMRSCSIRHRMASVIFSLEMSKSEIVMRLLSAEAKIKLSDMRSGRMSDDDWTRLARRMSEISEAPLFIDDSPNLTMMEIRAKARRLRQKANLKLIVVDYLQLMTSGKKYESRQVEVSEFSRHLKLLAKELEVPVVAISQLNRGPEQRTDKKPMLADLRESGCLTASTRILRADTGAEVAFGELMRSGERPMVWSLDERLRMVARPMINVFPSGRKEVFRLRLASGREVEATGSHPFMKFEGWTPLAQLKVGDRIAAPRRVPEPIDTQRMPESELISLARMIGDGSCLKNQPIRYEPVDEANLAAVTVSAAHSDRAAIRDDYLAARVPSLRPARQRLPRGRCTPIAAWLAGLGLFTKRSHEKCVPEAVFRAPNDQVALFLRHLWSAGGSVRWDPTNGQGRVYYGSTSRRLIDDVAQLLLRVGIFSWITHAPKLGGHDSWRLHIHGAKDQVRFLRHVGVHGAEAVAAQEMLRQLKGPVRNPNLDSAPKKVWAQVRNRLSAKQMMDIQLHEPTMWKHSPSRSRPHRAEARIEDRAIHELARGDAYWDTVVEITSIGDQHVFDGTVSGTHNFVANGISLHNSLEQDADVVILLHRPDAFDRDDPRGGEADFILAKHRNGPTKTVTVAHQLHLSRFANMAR

Protein RecA = target: T2, Protein RecA (Mycobacterium tuberculosis, UniProt P9WHJ3); assay: Fluorescence Cell-Free Homogeneous Dose Retest to Identify Inhibitors of RecA-Intein Splicing Activity. [Related pubchem assays (depositor defined):AID2097, AID2223, AID489010, AID492950]; type: functional
T2 sequence (P9WHJ3 whole entry): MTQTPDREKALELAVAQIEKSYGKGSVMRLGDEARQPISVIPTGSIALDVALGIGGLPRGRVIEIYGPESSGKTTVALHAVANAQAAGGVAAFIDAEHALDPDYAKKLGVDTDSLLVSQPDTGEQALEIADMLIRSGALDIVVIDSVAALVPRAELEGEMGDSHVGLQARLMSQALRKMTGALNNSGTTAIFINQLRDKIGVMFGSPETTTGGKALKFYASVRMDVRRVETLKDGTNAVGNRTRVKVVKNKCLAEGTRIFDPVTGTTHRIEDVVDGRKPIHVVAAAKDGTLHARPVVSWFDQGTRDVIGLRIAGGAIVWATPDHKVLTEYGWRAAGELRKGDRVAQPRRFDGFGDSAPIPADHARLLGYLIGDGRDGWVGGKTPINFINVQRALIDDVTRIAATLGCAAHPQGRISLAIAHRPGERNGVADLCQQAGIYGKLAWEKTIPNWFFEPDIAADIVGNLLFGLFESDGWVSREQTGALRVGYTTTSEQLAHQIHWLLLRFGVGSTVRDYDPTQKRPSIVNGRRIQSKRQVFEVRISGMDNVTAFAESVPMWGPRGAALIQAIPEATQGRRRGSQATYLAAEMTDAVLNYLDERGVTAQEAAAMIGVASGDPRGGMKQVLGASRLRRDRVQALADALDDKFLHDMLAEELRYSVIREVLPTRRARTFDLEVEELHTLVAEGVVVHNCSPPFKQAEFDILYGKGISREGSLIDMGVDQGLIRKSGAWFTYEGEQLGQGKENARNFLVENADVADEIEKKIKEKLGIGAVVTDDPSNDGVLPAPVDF

[8] = target: Luciferin 4-monooxygenase (Photinus pyralis, UniProt P08659); assay: inhibition of purified Photinus pyralis luciferase – biochemical, luminescence, dose response (AID 1891)
[9] = Luminescence Cell-Based Dose Confirmation HTS to Identify Inhibitors of Platelet Dense Granule Release. [Related pubchem assays: 1663 (Primary HTS), 1678 (Summary of Project)]; type: functional

Sequence of SWI/SNF-related matrix-associated actin-dependent regulator of chromatin subfamily A member 2 (P51531 whole entry): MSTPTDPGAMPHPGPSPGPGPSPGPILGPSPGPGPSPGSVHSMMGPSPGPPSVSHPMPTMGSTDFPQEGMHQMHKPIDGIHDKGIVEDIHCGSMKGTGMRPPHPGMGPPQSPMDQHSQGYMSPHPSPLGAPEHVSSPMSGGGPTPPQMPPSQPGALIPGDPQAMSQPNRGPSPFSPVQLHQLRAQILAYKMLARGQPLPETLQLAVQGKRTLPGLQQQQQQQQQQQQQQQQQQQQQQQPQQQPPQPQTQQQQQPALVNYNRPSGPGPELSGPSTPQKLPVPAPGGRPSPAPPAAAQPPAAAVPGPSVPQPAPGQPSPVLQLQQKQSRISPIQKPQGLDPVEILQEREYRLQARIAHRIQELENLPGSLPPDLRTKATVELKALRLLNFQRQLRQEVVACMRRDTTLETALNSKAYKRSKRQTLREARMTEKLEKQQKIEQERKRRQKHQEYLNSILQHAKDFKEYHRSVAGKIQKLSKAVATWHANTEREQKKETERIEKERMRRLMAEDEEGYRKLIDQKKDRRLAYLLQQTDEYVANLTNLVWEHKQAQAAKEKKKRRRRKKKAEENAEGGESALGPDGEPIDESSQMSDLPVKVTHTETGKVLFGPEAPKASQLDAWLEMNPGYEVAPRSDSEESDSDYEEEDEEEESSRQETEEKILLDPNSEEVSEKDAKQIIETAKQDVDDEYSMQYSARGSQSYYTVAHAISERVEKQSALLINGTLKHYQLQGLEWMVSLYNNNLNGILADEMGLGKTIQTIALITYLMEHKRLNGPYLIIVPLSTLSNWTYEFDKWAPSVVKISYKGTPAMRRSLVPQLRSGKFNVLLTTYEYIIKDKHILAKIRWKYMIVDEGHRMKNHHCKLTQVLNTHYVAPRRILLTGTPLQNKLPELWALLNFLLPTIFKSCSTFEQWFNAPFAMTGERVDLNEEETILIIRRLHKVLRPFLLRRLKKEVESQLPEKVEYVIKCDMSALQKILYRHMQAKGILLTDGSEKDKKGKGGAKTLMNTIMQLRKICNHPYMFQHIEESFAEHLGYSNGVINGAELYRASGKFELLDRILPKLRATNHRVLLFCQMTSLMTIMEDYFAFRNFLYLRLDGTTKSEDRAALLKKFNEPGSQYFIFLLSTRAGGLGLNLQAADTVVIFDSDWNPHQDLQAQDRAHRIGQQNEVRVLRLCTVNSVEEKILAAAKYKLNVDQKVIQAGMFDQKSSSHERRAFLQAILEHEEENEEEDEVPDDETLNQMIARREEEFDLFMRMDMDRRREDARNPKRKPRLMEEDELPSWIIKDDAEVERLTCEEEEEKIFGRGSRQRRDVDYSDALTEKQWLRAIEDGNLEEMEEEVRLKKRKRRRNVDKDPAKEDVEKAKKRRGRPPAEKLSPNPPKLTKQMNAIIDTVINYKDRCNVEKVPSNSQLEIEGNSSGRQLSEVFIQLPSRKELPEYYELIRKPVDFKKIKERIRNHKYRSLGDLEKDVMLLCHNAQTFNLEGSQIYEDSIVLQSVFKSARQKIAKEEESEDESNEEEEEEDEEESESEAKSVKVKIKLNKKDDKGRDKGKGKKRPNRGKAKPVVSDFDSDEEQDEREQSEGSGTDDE
Sequence of Luciferin 4-monooxygenase (P08659 whole entry): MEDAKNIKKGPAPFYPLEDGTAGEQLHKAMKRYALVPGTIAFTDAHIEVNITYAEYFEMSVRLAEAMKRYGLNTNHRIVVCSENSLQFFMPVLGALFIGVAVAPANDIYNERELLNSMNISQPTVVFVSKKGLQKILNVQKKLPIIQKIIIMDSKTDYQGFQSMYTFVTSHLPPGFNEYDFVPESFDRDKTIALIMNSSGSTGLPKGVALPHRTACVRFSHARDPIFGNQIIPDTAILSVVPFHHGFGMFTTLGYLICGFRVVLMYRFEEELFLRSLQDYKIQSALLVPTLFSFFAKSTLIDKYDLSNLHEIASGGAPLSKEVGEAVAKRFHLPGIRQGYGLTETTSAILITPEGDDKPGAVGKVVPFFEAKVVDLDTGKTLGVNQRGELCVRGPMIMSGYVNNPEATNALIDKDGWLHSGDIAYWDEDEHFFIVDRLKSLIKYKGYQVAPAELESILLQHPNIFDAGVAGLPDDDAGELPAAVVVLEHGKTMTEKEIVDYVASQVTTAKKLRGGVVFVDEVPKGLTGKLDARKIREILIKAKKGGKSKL

CN1CC(c2ccccc2)C2(SC(=S)N(Cc3ccco3)C2=O)C12C(=O)Nc1ccccc12 (stereo not given)
AC50 [1]: 4.4 µM (active) | AC50 [2]: 17.6 µM (active) | AC50 [3]: 20.3 µM (active) | AC50 [4]: 18.4 µM (active)

CC(C)c1c(CN(C)C(C)Cc2ccccc2)n(C)n(-c2ccccc2)c1=O (stereo not given) [FAMPROFAZONE]
AC50 (HEK293): 292 µM (active)

COc1cccc(C(=O)COC(=O)c2cccs2)c1
EC50 [5]: > 91.1 µM (inactive) | EC50 [6]: > 91.1 µM (inactive)

Cc1cc(C)n2nc(CNS(=O)(=O)c3c(F)c(F)c(F)c(F)c3F)nc2n1
EC50 [5]: > 91.2 µM (inactive) | AC50 [7]: 38.5 µM (active) | EC50 (Protein RecA): 10.8 µM (active) | EC50 [6]: > 91.2 µM (inactive)

Cc1nnc2c(N(C)S(=O)(=O)c3ccccc3)nc3ccccc3n12
EC50 [5]: > 91.2 µM (inactive) | EC50 [8]: > 112 µM (not active) | EC50 [9]: > 112 µM (not active) | EC50 [6]: > 91.2 µM (inactive)
